Patent US7504517B2, “Kv1.5 potassium channel inhibitors” (Wyeth, priority 2006, dated 2009)
Where a name gives a salt, the structure may show the parent alone.

Biological target: T1, Kv1.5 (Homo sapiens, UniProt P22460)
T1 construct: expressed in transfected cells; host or cells: HEK or LTK- cells
Experiment: Kv1.5 Patch Clamp EP
Type: cell-based
Details: 1.0 μM, single point; whole cell patch clamp, Kv1.5 stably over expressed in HEK or LTK- cells
Procedure: The external solution is standard Tyrodes solution. […] Inhibition was measured at the end of the 1 second pulses and expressed relative to controls. Initial Kv1.5 inhibition is estimated by single point determinations done at 1 μM.

T1 sequence (P22460 whole entry): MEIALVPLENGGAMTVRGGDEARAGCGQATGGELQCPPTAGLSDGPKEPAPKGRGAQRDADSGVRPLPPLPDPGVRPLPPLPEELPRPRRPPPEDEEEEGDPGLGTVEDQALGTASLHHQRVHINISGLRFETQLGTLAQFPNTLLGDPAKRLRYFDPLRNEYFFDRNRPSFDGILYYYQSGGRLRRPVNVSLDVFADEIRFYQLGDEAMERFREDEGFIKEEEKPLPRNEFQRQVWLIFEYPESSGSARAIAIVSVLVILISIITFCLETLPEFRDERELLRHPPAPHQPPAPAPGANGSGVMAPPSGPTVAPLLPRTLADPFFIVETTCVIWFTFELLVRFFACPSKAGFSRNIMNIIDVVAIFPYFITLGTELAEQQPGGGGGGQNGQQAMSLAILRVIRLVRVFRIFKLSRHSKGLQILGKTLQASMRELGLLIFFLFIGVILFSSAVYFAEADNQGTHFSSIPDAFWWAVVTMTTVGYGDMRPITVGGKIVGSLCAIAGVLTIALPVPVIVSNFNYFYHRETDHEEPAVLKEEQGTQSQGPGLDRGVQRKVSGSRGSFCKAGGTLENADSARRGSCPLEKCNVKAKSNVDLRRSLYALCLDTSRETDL

SMILES	inhibition at 1 µM [%]
COc1ccc(CCN2C(=O)N(NS(=O)(=O)CC(=O)NC3CC3)CC2c2ccc(OC)cc2)cc1 (stereo not shown) [Compound 56, 1-[[2-(Cyclopropylamino)-2-oxoethyl]sulfonylamino]-3-[2-(4-methoxyphenyl)-ethyl]-4-(4-methoxyphenyl)-2-imidazolidinone]	39
COc1ccc(CN2C(=O)N(NS(C)(=O)=O)CC2c2ccc(C3CC3)cc2)cc1 (stereo not shown) [Compound 19, 1-(Methylsulfonylamino)-3-[(4-methoxyphenyl)methyl]-4-(4-cyclopropylphenyl)-2-imidazolidinone]	27
COc1ccc(CCCN2C(=O)N(NS(=O)(=O)CS(C)(=O)=O)CC2c2ccc(OC)cc2)cc1 (stereo not shown) [Compound 126, N-{4-(4-methoxyphenyl)-3-[3-(4-methoxyphenyl)propyl]-2-oxoimidazolidin-1-yl}-1-(methylsulfonyl)methanesulfonamide]	46
COc1ccc(CCN2C(=O)N(N)CC2Cc2ccc(F)cc2)cc1 (stereo not shown) [Compound 129, 1-amino-4-(4-fluorobenzyl)-3-[2-(4-methoxyphenyl)ethyl]imidazolidin-2-one]	4
COc1ccc(CCN2C(=O)N(N)CC2c2ccc(OC(F)F)cc2)cc1 (stereo not shown) [Compound 5, 1-Amino-3-[2-(4-methoxyphenyl)ethyl]-4-(4-difluoromethoxyphenyl)-2-imidazolidinone 4-methylbenzenesulfonic acid salt]	36
COc1ccc(CCN2C(=O)N(NS(=O)(=O)CC(=O)NCC3CC3)C[C@H]2c2ccc(OC)cc2)cc1 [Compound 136, N-(cyclopropylmethyl)-2-({(4R)-4-(4-methoxyphenyl)-3-[2-(4-methoxyphenyl)ethyl]-2-oxoimidazolidin-1-yl}sulfamoyl)acetamide]	44
CCC1(CC)CN(NS(=O)(=O)Cc2cccnc2)C(=O)N1CCc1ccc(OC)cc1 [Compound 162, N-{4,4-diethyl-3-[2-(4-methoxyphenyl)ethyl]-2-oxoimidazolidin-1-yl}-1-pyridin-3-ylmethanesulfonamide]	8
COc1ccc(CCN2C(=O)N(NS(C)(=O)=O)CC2C2(c3ccccc3)CC2)cc1 (stereo not shown) [Compound 140, N-{3-[2-(4-methoxyphenyl)ethyl]-2-oxo-4-(1-phenylcyclopropyl)imidazolidin-1-yl}methanesulfonamide]	6
COc1ccc(CCN2C(=O)N(N)CC2C2(c3ccc(F)cc3)CC2)cc1 (stereo not shown) [Compound 163, 1-amino-4-[1-(4-fluorophenyl)cyclopropyl]-3-[2-(4-methoxyphenyl)ethyl]imidazolidin-2-one]	16
COc1ccc(CCN2C(=O)N(NS(C)(=O)=O)CC2C2(c3ccc(F)cc3)CC2)cc1 (stereo not shown) [Compound 165, N-{4-[1-(4-fluorophenyl)cyclopropyl]-3-[2-(4-methoxyphenyl)ethyl]-2-oxoimidazolidin-1-yl}methanesulfonamide]	11
COc1ccc(CCN2C(=O)N(NC(=O)c3cnccn3)CC2c2ccc(C(C)(C)C)cc2)cc1 (stereo not shown) [Compound 147, N-{4-(4-tert-butylphenyl)-3-[2-(4-methoxyphenyl)ethyl]-2-oxoimidazolidin-1-yl}pyrazine-2-carboxamide]	42
CNC(=O)N1CCN(N2CC(c3ccc(C(C)(C)C)cc3)N(CCc3ccc(OC)cc3)C2=O)CC1 (stereo not shown) [Compound 117, 4-{4-(4-tert-butylphenyl)-3-[2-(4-methoxyphenyl)ethyl]-2-oxoimidazolidin-1-yl}-N-methylpiperazine-1-carboxamide]	19
COc1ccc(CCN2C(=O)N(NS(=O)(=O)Cc3cccnc3)CC2c2ccc(F)cc2)cc1 (stereo not shown) [Compound 139, N-{4-(4-fluorophenyl)-3-[2-(4-methoxyphenyl)ethyl]-2-oxoimidazolidin-1-yl}-1-pyridin-3-ylmethanesulfonamide]	14
COc1ccc(CCN2C(=O)N(N3CCN(C(=O)N(C)C)CC3)CC2c2ccc(C(C)(C)C)cc2)cc1 (stereo not shown) [Compound 130, 4-{4-(4-tert-butylphenyl)-3-[2-(4-methoxyphenyl)ethyl]-2-oxoimidazolidin-1-yl}-N,N-dimethylpiperazine-1-carboxamide]	37
COCCOc1ccc(C2CN(N)C(=O)N2CCc2ccc(OC)cc2)cc1 (stereo not shown) [Compound 141, 1-amino-4-[4-(2-methoxyethoxy)phenyl]-3-[2-(4-methoxyphenyl)ethyl]imidazolidin-2-one]	4
COc1ccc(CCN2C(=O)N(NS(=O)(=O)CC(=O)OCC3c4ccccc4-c4ccccc43)CC2c2ccc(C3CC3)cc2)cc1 (stereo not shown) [Compound 102, 1-[[2-(9H-fluoren-9-ylmethoxy)-2-oxoethyl]sulfonylamino]-3-[2-(4-methoxyphenyl)ethyl]-4-(4-cyclopropylphenyl)-2-imidazolidinone]	6
COc1ccc(C2CN(N)C(=O)N2CCc2ccc(OC(F)F)cc2)cc1 (stereo not shown) [Compound 154, 1-amino-3-{2-[4-(difluoromethoxy)phenyl]ethyl}-4-(4-methoxyphenyl)imidazolidin-2-one]	7
CC(C)(C)c1ccc(C2CN(NS(C)(=O)=O)C(=O)N2CCc2ccc(OCCN3CCOCC3)cc2)cc1 (stereo not shown) [Compound 169, N-[4-(4-tert-butylphenyl)-3-{2-[4-(2-morpholin-4-ylethoxy)phenyl]ethyl}-2-oxoimidazolidin-1-yl]methanesulfonamide]	16
COc1ccc(CCN2C(=O)N(NS(=O)(=O)c3cccnc3)CC2c2ccc(OC)cc2)cc1 (stereo not shown) [Compound 62, 1-[(Pyridin-3-yl)sulfonylamino]-3-[2-(4-methoxyphenyl)ethyl]-4-(4-methoxyphenyl)-2-imidazolidinone]	26

More lines, now with the values ahead:

inhibition at 1 µM [%]	SMILES
10	COc1ccc(CCN2C(=O)N(NS(C)(=O)=O)CC2c2ccc(OC)c(OC)c2)cc1 (stereo not shown) [Compound 158, N-{4-(3,4-dimethoxyphenyl)-3-[2-(4-methoxyphenyl)ethyl]-2-oxoimidazolidin-1-yl}methanesulfonamide]
41	COc1ccc(CCN2C(=O)N(NS(=O)(=O)N3CCN(C)CC3)CC2c2ccc(C)c(C)c2)cc1 (stereo not shown) [Compound 166, N-{4-(3,4-dimethylphenyl)-3-[2-(4-methoxyphenyl)ethyl]-2-oxoimidazolidin-1-yl}-4-methylpiperazine-1-sulfonamide]
48	COc1ccc(CCN2C(=O)N(NS(C)(=O)=O)CC2c2ccc3c(c2)OC(F)(F)O3)cc1 (stereo not shown) [Compound 16, 1-(Methylsulfonylamino)-3-[2-(4-methoxyphenyl)ethyl]-4-(2,2-difluorobenzo-[1,3]dioxol-5-yl)-2-imidazolidinone]
42	COc1ccc(CCN2C(=O)N(NS(=O)(=O)CCN3CCOCC3)CC2c2ccc3c(c2)OCCO3)cc1 (stereo not shown) [Compound 125, N-{4-(2,3-dihydro-1,4-benzodioxin-6-yl)-3-[2-(4-methoxyphenyl)ethyl]-2-oxoimidazolidin-1-yl}-2-morpholin-4-ylethanesulfonamide]
42	COc1ccc(CCN2C(=O)N(NS(=O)(=O)CC#N)CC2c2ccc(OC)cc2)cc1 (stereo not shown) [Compound 41, 1-(Cyanomethylsulfonylamino)-3-[2-(4-methoxyphenyl)ethyl]-4-[(4-methoxy)-phenyl]-2-imidazolidinone]
30	COc1ccc(CCN2C(=O)N(NS(C)(=O)=O)CC2c2ccc(C(F)(F)F)cc2)cc1 (stereo not shown) [Compound 22, 1-(Methylsulfonylamino)-3-[2-(4-methoxyphenyl)ethyl]-4-(4-trifluoromethyl-phenyl)-2-imidazolidinone]
12	COc1ccc(CCN2C(=O)N(NS(=O)(=O)CS(C)(=O)=O)CC2c2ccc(OC)cc2)cc1 (stereo not shown) [Compound 153, N-{4-(4-methoxyphenyl)-3-[2-(4-methoxyphenyl)ethyl]-2-oxoimidazolidin-1-yl}-1-(methylsulfonyl)methanesulfonamide]
8	COc1ccc(CCN2C(=O)N(NCc3cc[n+]([O-])cc3)CC2c2ccc(C)c(C)c2)cc1 (stereo not shown) [Compound 161, 4-(3,4-dimethylphenyl)-3-[2-(4-methoxyphenyl)ethyl]-1-{[(1-oxidopyridin-4-yl)methyl]amino}imidazolidin-2-one]
8	COCCOc1ccc(C2CN(NS(C)(=O)=O)C(=O)N2CCc2ccc(OC)cc2)cc1 (stereo not shown) [Compound 151, N-{4-[4-(2-methoxyethoxy)phenyl]-3-[2-(4-methoxyphenyl)ethyl]-2-oxoimidazolidin-1-yl}methanesulfonamide]
21	COc1ccc(CCN2C(=O)N(NS(C)(=O)=O)CC2c2ccc3ncccc3c2)cc1 (stereo not shown) [Compound 143, N-{3-[2-(4-methoxyphenyl)ethyl]-2-oxo-4-quinolin-6-ylimidazolidin-1-yl}methanesulfonamide]
46	COc1ccc(CCN2C(=O)N(NCc3ccccn3)CC2c2ccc(C)c(C)c2)cc1 (stereo not shown) [Compound 93, 1-[(Pyridin-2-ylmethyl)amino]-3-[2-(4-methoxyphenyl)ethyl]-4-(3,4-dimethylphenyl)-2-imidazolidinone]
9	COc1ccc(CCN2C(=O)N(NS(C)(=O)=O)CC2c2ccc(OC)nc2)cc1 (stereo not shown) [Compound 149, N-{3-[2-(4-methoxyphenyl)ethyl]-4-(6-methoxypyridin-3-yl)-2-oxoimidazolidin-1-yl}methanesulfonamide]
46	COc1ccc(CCN2C(=O)N(NS(C)(=O)=O)CC2c2ccc3c(c2)OCO3)cc1 (stereo not shown) [Compound 15, 1-(Methylsulfonylamino)-3-[2-(4-methoxyphenyl)ethyl]-4-(benzo[1,3]dioxol-5-yl)-2-imidazolidinone]
36	COc1ccc(CCN2C(=O)N(NS(N)(=O)=O)CC2c2ccc(OC)cc2)cc1 (stereo not shown) [Compound 167, N-{4-(4-methoxyphenyl)-3-[2-(4-methoxyphenyl)ethyl]-2-oxoimidazolidin-1-yl}sulfamide]
5	COc1ccc(CCN2C(=O)N(NS(=O)(=O)CC(N)=O)CC2c2ccc(OC)cc2)cc1 (stereo not shown) [Compound 115, 2-({4-(4-methoxyphenyl)-3-[2-(4-methoxyphenyl)ethyl]-2-oxoimidazolidin-1-yl}sulfamoyl)acetamide]
